Values quoted from earlier work in US20230174656A1, “T[…] REMDESIVIR COMBINATION THERAPY FOR COVID-19 PNEUMONIA” (priority 2020, published 2023).
Read-outs that look alike come from different tables or passages of the source.

Tests used:
COVID-19 pneumonia = conditions: cited from earlier work
[1] = cited from earlier work; for geometric mean maximum concentration of TCZ: patients with CAR T cell induced CRS, % CV in brackets
[2] = system: CAR T cell-induced severe or life-threatening CRS; conditions: cited from earlier work

TCZ: recombinant humanized monoclonal IgG1κ antibody that binds to human interleukin-6 receptor (IL-6R); light and heavy chains SEQ ID NOs. 1 and 2
patients in whom percentage of lymphocytes in peripheral blood returned to normal (COVID-19 pneumonia; 10/19, fifth day after treatment): 52.6%
patients who had lowered their oxygen intake (COVID-19 pneumonia; 15 of 20 patients): 75.0%
patients in whom abnormally elevated CRP decreased significantly (COVID-19 pneumonia; 16/19): 84.2%
adverse drug reactions and subsequent pulmonary infections (COVID-19 pneumonia; 21 treated patients): No adverse drug reactions and no subsequent pulmonary infections were reported
deaths (COVID-19 pneumonia; 21 treated patients): no deaths among the 21 treated patients
fever after TCZ treatment (COVID-19 pneumonia; TCZ IV 400 mg plus standard of care): fever returned to normal
patients needing no oxygen therapy (COVID-19 pneumonia; after TCZ treatment): one patient needed no oxygen therapy
patients with significant remission of opacities in both lungs on CT scans (COVID-19 pneumonia; after treatment): 90.5%
patients discharged at the time of the report (COVID-19 pneumonia; nineteen patients, including two critical patients): 90.5%
geometric mean maximum concentration of TCZ ([1]; after the first infusion): 99.5 µg/mL
geometric mean maximum concentration of TCZ ([1]; after the second infusion): 160.7 µg/mL
clearance of TCZ (PK modeling analysis) ([1]; patients with CRS versus healthy volunteers and other patient populations): faster clearance of TCZ than healthy volunteers and other patient populations
patients achieving a response (afebrile and off vasopressors for at least 24 hours) within 14 days of the first dose of TCZ ([2]; CTL019 series, 45 patients, maximum up to two doses): 69%
median time from the first dose to response ([2]; CTL019 series): 4 days
patients achieving a response ([2]; axicabtagene ciloleucel series, 15 patients): 53%
median time to response ([2]; axicabtagene ciloleucel series): 4.5 days
adverse reactions attributable to TCZ ([2]; patients with CRS after CAR T-cell therapy): no reports of adverse reactions attributable to TCZ
